Measured values reported in patent US8697694B2, “Substituted pyridine and pyrimidine derivatives and their use in treating viral infections” (priority 2008, dated 2014).

System: HCV replicon cells
Assay: Cell-based HCV replicon assay (replicon RNA level by real time PCR, Taqman)
Conditions: Hepatitis C virus, 72 h, HCV replicon cells, replicon RNA level by real time PCR, harvested day 3; read-out: EC90 (μM) range
Method in brief: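 Readout: ΔCT between NS5B replicon RNA and GAPDH by real-time RT-PCR in lysates harvested on day 3, fitted sigmoidally; EC50 at ΔCT=1, EC90 at ΔCT=3.2. Compounds tested at ten 2-fold dilutions from 25 μM to 1 μM start, 10% FBS, 0.5% DMSO.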

Compound	EC90 [µM]
CCN(C[C@H]1C[C@@H](Nc2nc(NCC(F)(F)F)nc(C)c2-c2nc3ccccc3s2)[C@H](O)[C@@H]1O)C(=O)OC [Example 1391]	< 0.5
CCN(C[C@H]1C[C@@H](Nc2nc(NCC(F)(F)F)nc(C)c2-c2nc3ccccc3s2)[C@H](O)[C@@H]1O)S(C)(=O)=O [Example 1392]	< 0.5
CCN(C[C@@H]1C[C@@H](Nc2nc(NCC(F)(F)F)nc(C)c2-c2nc3ccccc3s2)[C@H](O)[C@@H]1O)S(C)(=O)=O [Example 1393]	0.5 to 5
Cc1nc(NCC(F)(F)F)nc(N[C@@H]2C[C@@H](CN(CC3CC3)S(C)(=O)=O)[C@@H](O)[C@H]2O)c1-c1nc2ccccc2s1 [Example 1394]	0.5 to 5
Cc1nc(NCC(F)(F)F)nc(N[C@@H]2C[C@H](CN(CC3CC3)S(C)(=O)=O)[C@@H](O)[C@H]2O)c1-c1nc2ccccc2s1 [Example 1395]	< 0.5
Cc1nc(NCC(F)(F)F)nc(N[C@@H]2C[C@H](CN3CCCS3(=O)=O)[C@@H](O)[C@H]2O)c1-c1nc2ccccc2s1 [Example 1396]	< 0.5
Cc1nc(N[C@H](C)c2ccc(OC(F)(F)F)cc2)nc(N[C@@H]2C[C@H](CO)[C@@H](O)[C@@]2(C)O)c1-c1nc2cnccc2s1 [Example 1397]	< 0.5
Cc1nc(NC2CC2)nc(N[C@@H]2C[C@H](C(C)O)[C@@H](O)[C@H]2O)c1-c1nc2c(C)nccc2s1 (stereo partly drawn) [Example 1398]	< 0.5
Cc1nc(N[C@H](C)c2ccc(OC(F)(F)F)cc2)nc(N[C@@H]2C[C@H](C(C)O)[C@@H](O)[C@H]2O)c1-c1nc2c(C)nccc2s1 (stereo partly drawn) [Example 1399]	< 0.5
Cc1nc(NCC(F)(F)F)nc(N[C@@H]2C[C@H](CN3CCOC3=O)[C@@H](O)[C@H]2O)c1-c1nc2ccccc2s1 [Example 1400]	< 0.5
Cc1nc(N[C@H](C)c2ccc(OC(F)(F)F)cc2)nc(N[C@@H]2C[C@H](CO)[C@@H](O)[C@H]2O)c1-c1nc2c(C3CC3)nccc2s1 [Example 1401]	< 0.5
Cc1nc(NC2CC2)nc(N[C@@H]2C[C@H](CO)[C@@H](O)[C@H]2O)c1-c1nc2c(C3CC3)nccc2s1 [Example 1402]	< 0.5
COc1cc(CNc2nc(C)c(-c3nc4ccccc4s3)c(N[C@H]3C[C@@H](CO)[C@H](O)[C@@H]3O)n2)cc(OC)c1 [Example 1501]	0.5 to 5
Cc1nc(NCC(C)(C)C)nc(N[C@H]2C[C@@H](CO)[C@H](O)[C@@H]2O)c1-c1nc2ccccc2s1 [Example 1502]	> 5
Cc1nc(NC2CCC2)nc(N[C@@H]2C[C@H](CO)[C@@H](O)[C@H]2O)c1-c1nc2ccccc2s1 [Example 1503]	0.5 to 5
CCOCCNc1nc(C)c(-c2nc3c(CC)nccc3s2)c(N[C@@H]2C[C@H](CO)[C@@H](O)[C@H]2O)n1 [Example 1504]	< 0.5
CCc1nccc2sc(-c3c(C)nc(N[C@H](C)C4CC4)nc3N[C@@H]3C[C@H](CO)[C@@H](O)[C@H]3O)nc12 [Example 1505]	< 0.5
CC(=O)NC[C@H]1C[C@@H](Nc2nc(NCC(F)(F)F)nc(C)c2-c2nc3ccccc3s2)[C@H](O)[C@@H]1O [Example 1506]	0.5 to 5
Cc1nc(NCC(F)(F)F)nc(N[C@@H]2C[C@H](CNS(C)(=O)=O)[C@@H](O)[C@H]2O)c1-c1nc2ccccc2s1 [Example 1507]	< 0.5
Cc1nc(NCC(F)(F)F)nc(N[C@@H]2C[C@H](CNC(=O)CO)[C@@H](O)[C@H]2O)c1-c1nc2ccccc2s1 [Example 1508]	0.5 to 5
Cc1nc(NCC(F)(F)F)nc(N[C@@H]2C[C@H](CO)[C@@H](O)[C@H]2O)c1-c1nc2ccccc2o1 [Example 1509]	< 0.5
Cc1nc(NCC2CC2)nc(N)c1-c1nc2cnccc2s1 [Example 1510]	0.5 to 5
Cc1ccc([C@@H](C)Nc2nc(C)c(-c3nc4cnccc4s3)c(N)n2)cc1 [Example 1511]	< 0.5

Compound	EC90 [µM]
Cc1nc(NCC(F)(F)F)nc(N[C@@H]2C[C@H](CNS(=O)(=O)CC(C)C)[C@@H](O)[C@H]2O)c1-c1nc2ccccc2s1 [Example 1512]	0.5 to 5
Cc1nc(NCC(F)(F)F)nc(N[C@@H]2C[C@H](CNS(=O)(=O)C3CC3)[C@@H](O)[C@H]2O)c1-c1nc2ccccc2s1 [Example 1513]	0.5 to 5
Cc1nc(NCC(F)(F)F)nc(NC2CCN(C(=O)OC(C)(C)C)CC2)c1-c1nc2ccccc2s1 [Example 1514]	> 5
Cc1nc(NCC(F)(F)F)nc(NC2CCN(C(=O)OC(C)(C)C)C2)c1-c1nc2ccccc2s1 (stereo not drawn) [Example 1515]	0.5 to 5
Cc1nc(NCC(F)(F)F)nc(NC2CCNCC2)c1-c1nc2ccccc2s1 [Example 1516]	0.5 to 5
Cc1nc(NCC(F)(F)F)nc(NC2CCNC2)c1-c1nc2ccccc2s1 (stereo not drawn) [Example 1517]	> 5
Cc1nc(NCC(F)(F)F)nc(N[C@@H]2C[C@H](CNS(=O)(=O)CCN)[C@@H](O)[C@H]2O)c1-c1nc2ccccc2s1 [Example 1518]	> 5
Cc1nc(NCC(F)(F)F)nc(N[C@@H]2C[C@H](CN)[C@@H](O)[C@H]2O)c1-c1nc2ccccc2s1 [Example 1519]	0.5 to 5
Cc1nc(NCC(F)(F)F)nc(N[C@@H]2C[C@H](CNS(=O)(=O)CC(F)(F)F)[C@@H](O)[C@H]2O)c1-c1nc2ccccc2s1 [Example 1520]	0.5 to 5
CCS(=O)(=O)NC[C@H]1C[C@@H](Nc2nc(NCC(F)(F)F)nc(C)c2-c2nc3ccccc3s2)[C@H](O)[C@@H]1O [Example 1521]	0.5 to 5
COC(=O)NC[C@H]1C[C@@H](Nc2nc(NCC(F)(F)F)nc(C)c2-c2nc3ccccc3s2)[C@H](O)[C@@H]1O [Example 1522]	0.5 to 5
Cc1nc(NCC(F)(F)F)nc(N[C@@H]2C[C@H](CNS(=O)(=O)C(F)(F)F)[C@@H](O)[C@H]2O)c1-c1nc2ccccc2s1 [Example 1523]	0.5 to 5
Cc1nc(N[C@H](C)c2cccc(F)c2)nc(N[C@@H]2C[C@H](CO)[C@@H](O)[C@H]2O)c1-c1nc2c(C)nccc2s1 [Example 1524]	< 0.5
Cc1cccc([C@@H](C)Nc2nc(C)c(-c3nc4c(C)nccc4s3)c(N[C@@H]3C[C@H](CO)[C@@H](O)[C@H]3O)n2)c1 [Example 1525]	< 0.5
CCc1ccc([C@@H](C)Nc2nc(C)c(-c3nc4c(C)nccc4s3)c(N[C@@H]3C[C@H](CO)[C@@H](O)[C@H]3O)n2)cc1 [Example 1526]	< 0.5
Cc1ccccc1[C@@H](C)Nc1nc(C)c(-c2nc3c(C)nccc3s2)c(N[C@@H]2C[C@H](CO)[C@@H](O)[C@H]2O)n1 [Example 1527]	< 0.5
Cc1nc(N[C@H](C)c2ccc(OC(F)(F)F)cc2)nc(N[C@@H]2C[C@H](CO)[C@@H](O)[C@H]2O)c1-c1nc2c(C)nccc2s1 [Example 1528]	< 0.5
COc1ccc([C@@H](C)Nc2nc(C)c(-c3nc4c(C)nccc4s3)c(N[C@@H]3C[C@H](CO)[C@@H](O)[C@H]3O)n2)cc1 [Example 1529]	< 0.5
Cc1nc(N[C@H](c2ccc(-n3cccn3)cc2)C(F)(F)F)nc(N[C@@H]2C[C@H](CO)[C@@H](O)[C@H]2O)c1-c1nc2c(C)nccc2s1 [Example 1530]	> 5
Cc1nc(N[C@H](c2ccc(C(F)(F)F)cc2)C(F)(F)F)nc(N[C@@H]2C[C@H](CO)[C@@H](O)[C@H]2O)c1-c1nc2c(C)nccc2s1 [Example 1531]	> 5
Cc1nc(N)nc(N[C@@H]2C[C@H](CO)[C@@H](O)[C@H]2O)c1-c1nc2c(C)nccc2s1 [Example 1534]	> 5
CCCc1nccc2sc(-c3c(C)nc(NC4CC4)nc3N[C@@H]3C[C@H](CO)[C@@H](O)[C@H]3O)nc12 [Example 1535]	< 0.5
